# Source: paper PMC4467398, “Preclinical antitumor activity of ST7612AA1: a new oral thiol-based histone deacetylase (HDAC) inhibitor” (Oncotarget, 2014)
# Test system: DOHH2 and TMD8 DLBCL cells
# Assay: Gene expression profiling (HumanHT-12 v4 BeadChip, limma), ST7612AA1 300 nM 8 hrs vs DMSO
# Format: cell-based, human
# Conditions: 300 nM 8 hrs vs DMSO
structure (smiles),measurement,value
CC(=O)SCCCCC[C@H](NC(=O)[C@H]1CCC(=O)N1)C(=O)Nc1ccccc1 [ST7612AA1],log ratio TCEA2 (probe ILMN_1665526),8.50E-01
same,log ratio TCEAL3 (probe ILMN_1734190),7.88E-01
same,log ratio TCERG1 (ILMN_1706839),-8.49E-01
same,log ratio TCFL5 (ILMN_1814247),6.07E-01
same,log ratio TCTN1 (probe ILMN_1685124),7.81E-01
same,log ratio TESK2 (probe ILMN_1654370),8.37E-01
same,log ratio TFB2M (ILMN_2067709),-7.83E-01
same,log ratio THOC6 (ILMN_1679880),-5.93E-01
same,log ratio THUMPD2 (ILMN_1787511),-6.05E-01
same,log ratio TIMM10 (ILMN_1765332),-1.04E+00
same,log ratio TLK1 (ILMN_1811029),-9.26E-01
same,log ratio TMBIM4 (ILMN_1664750),-9.76E-01
same,log ratio TMED1 (ILMN_1693045),-9.13E-01
same,log ratio TMEM14A (probe ILMN_1785191),7.29E-01
same,log ratio TMEM49 (probe ILMN_1692754),8.49E-01
same,log ratio TMEM154 (probe ILMN_2088124),6.89E-01
same,log ratio TMEM179B (ILMN_3241979),5.96E-01
same,log ratio TMEM184B (ILMN_1747460),6.31E-01
same,log ratio TMEM199 (ILMN_1748481),-6.12E-01
same,log ratio TMOD2 (probe ILMN_3250273),7.57E-01
same,log ratio TMPO (ILMN_1768816),-8.22E-01
same,log ratio TNFRSF17 (ILMN_1768016),-1.76E+00
same,log ratio TOB1 (ILMN_1672004),6.63E-01
same,log ratio TPRG1L (probe ILMN_1727479),7.86E-01
same,log ratio TPST1 (probe ILMN_1651950),7.51E-01
same,log ratio TPST2 (probe ILMN_1695432),7.18E-01
same,log ratio TRAFD1 (probe ILMN_1758250),8.52E-01
same,log ratio TRIM4 (ILMN_2323385),6.43E-01
same,log ratio TRIM6 (ILMN_1656910),5.98E-01
same,log ratio TRIM8 (ILMN_1746704),-8.66E-01
same,log ratio TRIM21 (ILMN_1678054),-8.09E-01
same,log ratio TRIM22 (ILMN_1779252),-8.73E-01
same,log ratio TRIP6 (ILMN_1713990),-1.16E+00
same,log ratio TRMT1 (ILMN_1812940),-8.45E-01
same,log ratio TRMT11 (ILMN_1805481),-8.20E-01
same,log ratio TSEN2 (ILMN_1746393),-8.42E-01
same,log ratio TSPAN4 (ILMN_2340027),5.99E-01
same,log ratio TTC27 (ILMN_1757730),-1.28E+00
same,log ratio TTLL12 (ILMN_1663113),-6.01E-01
same,log ratio TUBG2 (ILMN_1701052),6.65E-01
same,log ratio TXNDC14 (ILMN_1799367),-8.38E-01
same,log ratio TYMS (ILMN_1806040),-1.10E+00
same,log ratio TYSND1 (ILMN_1775677),-1.15E+00
same,log ratio TYW3 (ILMN_1726842),-9.88E-01
same,log ratio U2AF2 (ILMN_1768930),-1.25E+00
same,log ratio UBE2A (probe ILMN_2307455),7.18E-01
same,log ratio UBE2C (ILMN_2265654),-7.99E-01
same,log ratio UBE2D4 (ILMN_1707084),-8.99E-01
same,log ratio UBE2H (ILMN_1757644),6.49E-01
same,log ratio UBE2J1 (ILMN_1713759),-1.05E+00
same,log ratio UBTD1 (probe ILMN_1794914),8.56E-01
same,log ratio UBXN8 (ILMN_1731891),-8.44E-01
same,log ratio UCK2 (ILMN_1768662),-9.43E-01
same,log ratio UCP2 (probe ILMN_1685625),7.30E-01
same,log ratio UNC45A (ILMN_1726434),6.72E-01
same,log ratio UNC84A (probe ILMN_1772316),7.21E-01
same,log ratio UNG (ILMN_1683120),-1.39E+00
same,log ratio UPLP (probe ILMN_3236765),7.46E-01
same,log ratio UPP1 (ILMN_1798256),6.07E-01
same,log ratio URB2 (ILMN_3249406),-5.93E-01
same,log ratio USP13 (ILMN_3251526),-5.97E-01
same,log ratio VASH2 (probe ILMN_1692698),7.31E-01
same,log ratio VPS8 (probe ILMN_1678268),7.47E-01
same,log ratio VRK2 (ILMN_1750088),-9.87E-01
same,log ratio VRK3 (ILMN_1771697),6.75E-01
same,log ratio WARS2 (ILMN_2323979),-5.97E-01
same,log ratio WDR12 (ILMN_1770692),-7.92E-01
same,log ratio WDR12 (ILMN_2045729),-8.64E-01
same,log ratio WDR19 (probe ILMN_1655117),7.77E-01
same,log ratio WIBG (ILMN_1751431),-1.01E+00
same,log ratio WIPI2 (ILMN_2321292),6.22E-01
same,log ratio WNK1 (ILMN_1876924),6.14E-01
same,log ratio YARS2 (ILMN_1782635),-8.22E-01
same,log ratio YDJC (ILMN_1812580),-8.57E-01
same,log ratio YPEL3 (ILMN_1791147),6.17E-01
